The values below are quoted from earlier work in patent publication US11504319B2, “Process of coloring keratinous material comprising the use of an organosilicon compound, an effect pigment, a further coloring compound and a film-forming polymer III” (Henkel AG & Co. KGaA, priority 2019, dated 2022).

For this series the following is noted: 25° C.

The structures appear in SMILES notation.

With `Nc1cc(S(=O)(=O)[O-])cc2cc(S(=O)(=O)[O-])c(N=Nc3ccccc3)c(O)c12.[Na+].[Na+]` [Acid Red 33, disodium salt of 5-amino-4-hydroxy-3-(phenylazo)-naphthalene-2,7-disulphonate], the solubility in water was 2.5 mg/mL.
Regarding `O=S(=O)([O-])c1ccc(N=Nc2c(O)ccc3ccccc23)cc1.[Na+]` [Acid Orange 7, sodium salt of 4-[(2-hydroxy-1-naphthyl)azo]benzene sulphonate], the solubility in water result is “more than 7 g/L”.
For `O=C([O-])c1c(Cl)c(Cl)c(Cl)c(Cl)c1-c1c2c(Br)cc(=O)c(Br)c-2oc2c(Br)c(O)cc(Br)c12.O=C([O-])c1c(Cl)c(Cl)c(Cl)c(Cl)c1-c1c2c(Br)cc(=O)c(Br)c-2oc2c(Br)c(O)cc(Br)c12.[Na+].[Na+]` [Acid Red 92, disodium salt of 3,4,5,6-tetrachloro-2-(1,4,5,8-tetrabromo-6-hydroxy-3-oxoxanthen-9-yl)benzoic acid], the solubility in water entry is given as “greater than 10 g/L”.
Regarding `O=C([O-])C1=NN(c2ccc(S(=O)(=O)[O-])cc2)C(=O)C1N=Nc1ccc(S(=O)(=O)[O-])cc1.[Na+].[Na+].[Na+]` (stereo not shown) [Acid Yellow 23, trisodium salt of 4,5-dihydro-5-oxo-1-(4-sulfophenyl)-4-((4-sulfophenyl)azo)-1H-pyrazole-3-carboxylic acid], the “solubility in water (in words)” value is listed as “highly soluble”.
